{
  "source": "paper PMC11345839",
  "about": "“Synthesis and Characterization of Folic Acid-Conjugated Terbium Complexes as Luminescent Probes for Targeting Folate Receptor-Expressing Cells” (Journal of Medicinal Chemistry, 2024)",
  "key": {"[1]": {"target": "T1, FRβ (Homo sapiens, UniProt P14207)", "T1 construct": "expressed in transfected cells; host or cells: Chinese Hamster Ovary (CHO) cells", "T1 sequence (P14207 17-255)": "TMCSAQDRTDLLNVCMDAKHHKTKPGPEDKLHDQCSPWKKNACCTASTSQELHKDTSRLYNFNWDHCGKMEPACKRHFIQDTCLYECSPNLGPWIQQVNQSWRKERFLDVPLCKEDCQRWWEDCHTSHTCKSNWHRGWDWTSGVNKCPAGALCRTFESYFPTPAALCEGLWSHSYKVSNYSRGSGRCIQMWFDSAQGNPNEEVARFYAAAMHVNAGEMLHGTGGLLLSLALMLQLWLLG", "assay": "Folate-FITC binding competition assay (flow cytometry), FRβ on CHO/FRβ transfected cells", "details": "competition with 1 nM Folate-FITC", "protocol": "(§1) To assess the binding affinity of the terbium-folate conjugates, a flow cytometry binding competition assay was carried out with folate-FITC and increasing concentrations of terbium-folate conjugates with FRα and FRβ expressing cells. The affinity of FRα and FRβ for the terbium-folate conjugates is expressed relative to folic acid, which is given the value of 1.\n(§2) Human KB nasopharyngeal epidermoid carcinoma cells (expressing FRα) and FRβ-transfected Chinese Hamster Ovary cells were cultured in Folate-free RPMI medium (Thermo Fisher Scientific) supplemented with 20% Newborn Calf Serum, 1% antibiotics (penicillin and streptomycin) and 25 mM HEPES, in a humidified 37 °C incubator with 5% CO2 as described by Van der Heijden et al.[4] The culture medium was refreshed every 3 days. Stock solutions (1 mM) of Tb-folate conjugates were made by dissolving in 50 mM NaHCO3 and stored at −20 °C until use. […] Flow cytometry data was analyzed in FlowJo v10.8 Software (BD Life Sciences). […] Data from 6–9 replicative experiments were analyzed. […]\n(§3) Considering FRα and FRβ share the same affinity for folic acid and Folate-FITC, relative affinities for Tb-folate compounds were expressed relative to folic acid.[59],[60] The relative affinity was calculated using [drawing 1] […]"}, "[2]": {"target": "T2, FRα (Homo sapiens, UniProt P15328)", "T2 construct": "Human KB nasopharyngeal epidermoid carcinoma cells (expressing FRα); endogenous in cells; host or cells: KB nasopharyngeal epidermoid carcinoma cells", "T2 sequence (P15328 25-257)": "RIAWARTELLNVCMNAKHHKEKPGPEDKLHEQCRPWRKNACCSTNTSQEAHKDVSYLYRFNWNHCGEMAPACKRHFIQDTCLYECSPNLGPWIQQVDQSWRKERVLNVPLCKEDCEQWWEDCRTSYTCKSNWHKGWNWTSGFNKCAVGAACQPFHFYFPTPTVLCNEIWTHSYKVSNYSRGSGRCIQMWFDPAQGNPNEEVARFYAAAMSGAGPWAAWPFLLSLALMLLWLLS", "assay": "Folate-FITC binding competition assay (flow cytometry), FRα on KB cells", "details": "competition with 10 nM Folate-FITC", "protocol": "as §1, §2, §3"}, "[3]": {"set-up": "method as in PMID 30296376", "details": "λex = 776 nm, λem = 793 nm; cited from earlier work"}, "[4]": {"set-up": "method as in PMID 30296376", "details": "λex = 776 nm; cited from earlier work"}, "[5]": {"assay": "UV-vis absorption (molar extinction coefficient)", "assay_type": "physicochemical", "details": "H2O, λmax = 281 nm, mixture of regioisomers", "from_the_text": "The absorption spectrum of folic acid is characterized by two absorption bands in the region of 250–300 and 300–400 nm, which correspond to the π → π* transition for the pterin and the n → π* transition for the p-amino benzoyl acid moieties respectively.[46] […] Differences are observed for TbL,^4 which is red-shifted and broadened due to the overlap with the acetophenone moiety; similar absorbance spectra of acetophenone-folate complexes have been reported by Quici et al.[16]\nUV–vis spectra were recorded on a Cary60 UV–vis spectrophotometer fitted with a xenon source lamp or on a Jasco V-770 UV–visible/NIR spectrophotometer."}, "[6]": {"system": "FR", "details": "cited from earlier work"}},
  "data": [
    {"compound": "Nc1nc(=O)c2nc(CNc3ccc(C(=O)N[C@@H](CCC(=O)O)C(=O)O)cc3)cnc2[nH]1", "note": "[ChEBI_27470, folic acid]", "values": [
      {"measurement": "relative binding affinity to FRβ (folic acid = 1)", "setting": "[1]", "value": 1},
      {"measurement": "relative binding affinity to FRα (folic acid = 1)", "setting": "[2]", "value": 1}
    ]},
    {"compound": "CC1(C)C(/C=C/C2=C(Oc3ccc(C[C@H](NC(=O)c4ccc(NCc5cnc6nc(N)[nH]c(=O)c6n5)cc4)C(=O)[O-])cc3)C(=C/C=C3\\N(CCCCS(=O)(=O)[O-])c4ccc(S(=O)(=O)[O-])cc4C3(C)C)/CCC2)=[N+](CCCCS(=O)(=O)[O-])c2ccc(S(=O)(=O)[O-])cc21.[H+].[H+].[H+].[H+]", "note": "[OTL38]", "values": [
      {"measurement": "Φ (quantum yield)", "setting": "[3]", "value": 15.1, "unit": "%"},
      {"measurement": "ε (molar extinction coefficient)", "setting": "[4]", "value": "272 000 M^–1 cm^–1"}
    ]},
    {"compound": "Folate-PEG6-DOTA [L^1αγ]", "values": [
      {"measurement": "ε (molar extinction coefficient) of free ligand", "setting": "[5]", "value": 20013, "unit": "M^–1 cm^–1"}
    ]},
    {"compound": "CN1c2c(nc(N)[nH]c2=O)NCC1CNc1ccc(C(=O)N[C@@H](CCC(=O)O)C(=O)O)cc1", "note": "(stereo partly drawn) [5-methyltetrahydrofolate]", "values": [
      {"measurement": "FR affinity, fold lower than folic acid", "setting": "[6]", "value": "approximately 10 fold"}
    ]}
  ]
}
